We go through 1 molecule from patent publication US9433580B2 (priority 2011, dated 2016).

The experiment relates to Pseudomonas aeruginosa. The experiment can be described thus: Burn wound infection model (mouse superficial skin model, thermal injury), log reduction of Pseudomonas aeruginosa. Type of experiment: in vivo, Swiss albino mice. The note with it: orally 25 mg/kg body weight, day 6. As for the experimental part: Swiss albino mice were put into six groups and their backs were shaven. Thermal injury was induced in the shaven area by applying a heated brass rod on the back of the animals for 15 seconds to 20 seconds. For establishment of a topical infection, an inoculum containing approximately 2×10^5 bacteria (Pseudomonas aeruginosa) was injected subcutaneously (100 μL) on the sites of the burns. One hour post infection, the mice were treated using 100 mg of cream formulations of different drug concentrations. In case of all the cream formulations, 100 mg cream was applied topically twice daily for 5 days. One of the groups of mice was given Levofloxacin orally at 25 mg/kg body weight as a reference standard.

On to `C[C@H]1COc2c(N3CCN(C)CC3)c(F)cc3c(=O)c(C(=O)O)cn1c23` [Levofloxacin], for which the “Log reduction of microbial count” value is given as 5.53 log10.
